Laboratory results reported in patent US20260048062A1, “FUSED AMINO PYRIMIDINE COMPOUNDS FOR TREATMENT OF PSYCHOSIS AND PSYCHOTIC DISORDERS” (Ovid Therapeutics Inc., priority 2024, published 2026).

What was measured:
[1] = target: T1, KCC3 (Homo sapiens, UniProt Q9UHW9); test: Tl+ flux assay, HEK-293 cells expressing KCC3; type: cell-based; conditions: read-out: concentration at which effects on KCC3 were seen
T1 construct: expressed in transfected cells; host or cells: HEK-293
T1 sequence (Q9UHW9 1-1150): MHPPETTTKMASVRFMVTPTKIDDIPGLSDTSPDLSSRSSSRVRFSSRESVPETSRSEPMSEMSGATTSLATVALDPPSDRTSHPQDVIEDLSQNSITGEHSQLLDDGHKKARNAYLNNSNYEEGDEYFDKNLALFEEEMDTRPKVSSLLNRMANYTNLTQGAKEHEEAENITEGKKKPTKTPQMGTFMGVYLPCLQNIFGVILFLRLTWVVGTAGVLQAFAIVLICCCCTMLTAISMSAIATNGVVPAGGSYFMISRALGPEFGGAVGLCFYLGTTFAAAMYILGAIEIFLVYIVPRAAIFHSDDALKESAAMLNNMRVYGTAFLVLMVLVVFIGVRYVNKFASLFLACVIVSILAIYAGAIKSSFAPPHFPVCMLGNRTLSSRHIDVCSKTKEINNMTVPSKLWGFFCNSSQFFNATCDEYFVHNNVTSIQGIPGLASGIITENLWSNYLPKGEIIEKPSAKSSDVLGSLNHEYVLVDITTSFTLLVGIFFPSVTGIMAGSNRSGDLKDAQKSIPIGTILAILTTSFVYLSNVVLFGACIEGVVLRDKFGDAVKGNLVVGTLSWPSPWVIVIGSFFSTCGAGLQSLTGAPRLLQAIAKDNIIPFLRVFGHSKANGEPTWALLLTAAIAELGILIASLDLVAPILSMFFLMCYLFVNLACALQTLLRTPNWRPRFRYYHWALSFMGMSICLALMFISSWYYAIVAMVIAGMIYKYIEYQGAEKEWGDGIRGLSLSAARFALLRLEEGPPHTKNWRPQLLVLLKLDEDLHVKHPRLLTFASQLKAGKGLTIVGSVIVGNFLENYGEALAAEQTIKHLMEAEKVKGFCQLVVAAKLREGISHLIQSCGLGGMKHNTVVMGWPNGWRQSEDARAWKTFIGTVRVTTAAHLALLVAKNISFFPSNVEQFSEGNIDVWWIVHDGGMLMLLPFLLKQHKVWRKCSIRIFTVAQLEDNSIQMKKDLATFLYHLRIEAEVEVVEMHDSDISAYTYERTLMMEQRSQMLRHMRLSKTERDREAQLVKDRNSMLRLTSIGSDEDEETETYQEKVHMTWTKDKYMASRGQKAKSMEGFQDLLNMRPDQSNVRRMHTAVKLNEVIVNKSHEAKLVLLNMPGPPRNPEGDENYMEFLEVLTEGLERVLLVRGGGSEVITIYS
Description: FLIPR TI Flux assay. HEK-293 cells were washed with HBSS, and then incubated with loading buffer containing TI sensitive fluorescent dye (https://www.moleculardevices.com), 20 μM bumetanide 20 μM ouabain and 2.5 mM probenecid for 1 h at room temperature (RT) under control conditions or with drugs in the dark using a FlexStation 3 microplate reader (Molecular Devices) and imaged […] for 30 min. Stimulus buffer was added containing 5 mM K^+/0.5 mM Tl^+ and cells were imaged every 1.5 over a 190 second time course The initial rate Tl^+ uptake (Relative Fluorescence Units (RFU) per second) was determined following addition of the stimulus buffer as outlined previously (Conway et al., 2017, supra) (Lee et al., 2022, supra).
Compared to KCC2, effects on KCC3, KCC4, and NKCC1 were only seen at concentrations more than 35-fold that of KCC2 (>100 μM) (FIG. 1G).

[2] = target: T2, KCC2 (Homo sapiens, UniProt Q9H2X9); test: Biotinylation, plasma membrane level of KCC2 in HEK-293 cells; type: cell-based; conditions: 15 min
T2 construct: expressed in transfected cells; host or cells: HEK-293 (ATCC CRL-1573), transient transfection
T2 sequence (Q9H2X9 1-1116 isoform Q9H2X9-2): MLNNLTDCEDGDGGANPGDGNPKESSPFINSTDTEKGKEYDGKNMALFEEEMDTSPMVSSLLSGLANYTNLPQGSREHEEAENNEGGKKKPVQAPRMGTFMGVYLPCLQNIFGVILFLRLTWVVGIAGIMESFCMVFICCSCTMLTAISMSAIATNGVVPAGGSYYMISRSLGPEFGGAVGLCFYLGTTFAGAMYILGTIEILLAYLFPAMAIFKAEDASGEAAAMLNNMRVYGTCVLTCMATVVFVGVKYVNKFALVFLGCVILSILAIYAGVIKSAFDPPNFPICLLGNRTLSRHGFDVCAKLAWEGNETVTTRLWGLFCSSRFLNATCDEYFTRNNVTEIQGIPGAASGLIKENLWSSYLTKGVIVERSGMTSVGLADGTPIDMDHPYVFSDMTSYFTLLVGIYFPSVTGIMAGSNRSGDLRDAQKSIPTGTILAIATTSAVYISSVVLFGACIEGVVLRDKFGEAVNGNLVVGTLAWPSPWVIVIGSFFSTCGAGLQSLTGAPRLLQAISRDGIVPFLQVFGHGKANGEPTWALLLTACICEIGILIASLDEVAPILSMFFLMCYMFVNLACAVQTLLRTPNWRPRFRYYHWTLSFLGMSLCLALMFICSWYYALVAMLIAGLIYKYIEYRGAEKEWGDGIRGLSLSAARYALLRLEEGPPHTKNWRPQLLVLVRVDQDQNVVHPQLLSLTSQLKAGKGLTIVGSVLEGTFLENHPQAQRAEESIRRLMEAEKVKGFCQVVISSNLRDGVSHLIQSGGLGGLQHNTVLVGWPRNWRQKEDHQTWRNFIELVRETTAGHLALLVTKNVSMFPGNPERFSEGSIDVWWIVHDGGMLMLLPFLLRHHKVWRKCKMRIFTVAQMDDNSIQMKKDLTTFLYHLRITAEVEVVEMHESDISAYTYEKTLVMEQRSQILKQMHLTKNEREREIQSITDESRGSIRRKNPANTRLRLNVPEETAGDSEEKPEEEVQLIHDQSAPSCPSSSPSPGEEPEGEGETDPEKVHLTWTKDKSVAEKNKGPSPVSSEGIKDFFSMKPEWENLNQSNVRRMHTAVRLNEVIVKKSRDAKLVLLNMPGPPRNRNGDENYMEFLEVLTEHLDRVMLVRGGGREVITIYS
Description: Cell Culture and biotinylation. HEK-293 cells were purchased from ATCC (CRL-1573) and transfected with human KCC2 and GFP expression plasmids using Lipofectamine 2000. Cells were utilized for experimentation 48-72 h following transfection. Cells were biotinylated at 4° C. using NHS-Biotin. Following lysis and purification on immobilized avidin beads, cell surface and total fractions were subject to immunoblotting as outlined previously (Conway et al., 2017, supra).
The reliability of the biotinylation procedure was assessed via immunoblotting with antibodies against the cytosolic protein actin. Actin was present in the total lysates but was absent from the surface fractions (FIG. 2C).

Compound: C[C@@H]1CN(c2nc3c(c(Nc4ccc(C5CCCCC5)cc4)n2)COC3)CCO1 [Compound A, (R)—N-(4-cyclohexylphenyl)-2-(2-methylmorpholino)-5,7-dihydrofuro[3,4-d]pyrimidin-4-amine]
- EC50 [1]: > 100 µM
- level of KCC2 on the plasma membrane (surface/total) ([2]; 0.3 μM): 94.5±8.4 % of control
- level of KCC2 on the plasma membrane (surface/total) ([2]; 3 μM): 104.7±8.4 % of control
